Six compounds from ChEMBL document CHEMBL1157106, “cis-Clerodane-type furanoditerpenoids from Tinospora crispa” (J Nat Prod, 2010) can be followed below.

Assay [1] deals with NIH3T3. Briefly: Cytotoxicity against mouse 3T3 cells after 72 hrs by MTT assay. Type of assay: cell-based. To be noted: NIH3T3, 72 h.
Assay [2] relates to PC-3. Briefly: cells. The note with it: Homo sapiens, PC-3, 72 h.
Description: Cytotoxicity against human PC3 cells after 72 hrs by MTT assay

Structures are written as SMILES. pIC50: −log10 of the molar value.

In general, pIC50 refers to the negative decadic logarithm of the IC50, by convention in mol/L. High values mean a low IC50, low ones a high IC50. Consider `C[C@@]12C[C@@H](c3ccoc3)OC(=O)[C@@H]1C[C@@H]1OC(=O)[C@@]3(O)[C@@H](O[C@@H]4O[C@H](CO)[C@@H](O)[C@H](O)[C@H]4O)CC[C@@H]2[C@@]13C` [BORAPETOSIDE A], for which the pIC50 in assay [1] and in assay [2] was under 5.00 in each case.

For `COC(=O)C1=C[C@H](O)C[C@H]2[C@]3(C)C[C@@H](c4ccoc4)OC(=O)[C@H]3C[C@H](O[C@@H]3O[C@H](CO)[C@@H](O)[C@H](O)[C@H]3O)[C@@]12C` [BORAPETOSIDE B], the pIC50 in assay [1] and in assay [2] was under 5.00 each time.

In the case of `COC(=O)C1=CCC[C@H]2[C@]3(C)C[C@@H](c4ccoc4)OC(=O)[C@@H]3C[C@@H](O[C@@H]3O[C@H](CO)[C@@H](O)[C@H](O)[C@H]3O)[C@@]12C` [BORAPETOSIDE C], the pIC50 in assay [1] and in assay [2] was under 5.00 each time.

For the compound `COC(=O)C1=CCC[C@H]2[C@](C)(C[C@@H](O[C@@H]3O[C@H](CO[C@@H]4O[C@H](CO)[C@@H](O)[C@H](O)[C@H]4O)[C@@H](O)[C@H](O)[C@H]3O)c3ccoc3)[C@H]3C[C@H](OC3=O)[C@@]12C` [BORAPETOSIDE D], the pIC50 in assay [1] and in assay [2] was under 5.00 in each case.

Consider `C[C@@H]1C[C@@H]([C@H](O)CC2CC(=O)NC(=O)C2)C(=O)[C@@H](C)C1` [CYCLOHEXIMIDE], for which the pIC50 in assay [1] is 6.59.

Consider `COc1cccc2c1C(=O)c1c(O)c3c(c(O)c1C2=O)C[C@@](O)(C(=O)CO)C[C@@H]3O[C@H]1C[C@H](N)[C@H](O)[C@H](C)O1` [DOXORUBICIN], for which the pIC50 in assay [2] is 6.04.
